Tested on: Modified anti-cocaine aptamer (DNA, aptamer) ATCTCGGGAGACAAGGATAAATCCTTCAATGAAGTGGGTCTCCC
Test: fluorescence dequenching
Settings: apparent; displaced strand 5'-[…]-3'-dabcyl quencher oligo; cocaine 0-5 mM

COC(=O)[C@H]1[C@@H](OC(=O)c2ccccc2)C[C@@H]2CC[C@H]1N2C
K D: 134.4 ± 7.2 µM

Reference: article PMC3281204 (2011)
